According to US8633184B2, “Benzoazepin-oxy-acetic acid derivatives as PPAR-delta agonists used for the increase of HDL-C, lower LDL-C and lower cholesterol” (Janssen Pharmaceutica N.V., priority 2006, dated 2014):
Values joined by “and” are separate entries in the source; they are usually repeats but may differ in a detail not shown here. Equal entries are not always repeated.

Tests used:
Format in all cases: cell-based
Conditions in all cases: 18-24 hrs
PPARα = molecular target: T1, PPARα (Homo sapiens, UniProt Q07869); assay: Transfection assay, GAL4-PPARα LBD luciferase reporter in HEK293 cells
T1 construct: expressed in transfected cells; host or cells: HEK293
T1 sequence (Q07869 239-466 limits assumed): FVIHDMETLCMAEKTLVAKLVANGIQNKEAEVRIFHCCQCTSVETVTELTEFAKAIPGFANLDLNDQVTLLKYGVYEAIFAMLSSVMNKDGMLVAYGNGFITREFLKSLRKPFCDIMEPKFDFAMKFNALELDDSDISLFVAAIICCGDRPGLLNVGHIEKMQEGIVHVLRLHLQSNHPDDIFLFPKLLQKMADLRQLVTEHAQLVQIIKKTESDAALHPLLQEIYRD
Method: (§1) HEK293 cells were grown in DMEM/F12 medium supplemented with 10% FBS and glutamine (Invitrogen) and incubated in a 5% CO2 incubator at 37° C. The cells were co-transfected using DMRIE-C reagent (Invitrogen) in serum free medium (Opti-MEM, Invitrogen) with two mammalian expression plasmids, one containing the DNA sequence coding for the ligand binding domains of either PPARα, γ or δ fused to the yeast GAL4 DNA binding domain and the other containing the promoter sequence of the yeast GAL4 (UAS) fused to the firefly luciferase cDNA reporter. The next day, the medium was changed to DMEM/F12 medium supplemented with 5% charcoal treated serum (Hyclone) and glutamine. After 6 hrs the cells were trypsinized and seeded at a density of 50,000 cells/well into 96 well plates and incubated overnight as above. The cells were then treated with test compounds or vehicle and incubated for 18-24 hrs as above. Luciferase reporter activity was measured using the Steady-Glo Luciferase Assay Kit from Promega. DMRIE-C Reagent was purchased from GIBCO Cat. No. 10459-014. OPTI-MEM I Reduced Serum Medium was purchased from GIBCO (Cat. No. 31985). Steady-Glo Luciferase Assay Kit was purchased from Promega (Part #E254B).
(§2) A variety of example compounds have been made and tested, with a range of in vitro results. Below, in Table 2, are representative compounds and data; in some cases, where multiple EC50's are shown, multiple measurements were taken. Naturally, different compounds in Formula (I) may have not activities identical to any one compound below.

PPARγ = molecular target: T2, PPARγ (Homo sapiens, UniProt P37231); assay: Transfection assay, GAL4-PPARγ LBD luciferase reporter in HEK293 cells
T2 construct: expressed in transfected cells; host or cells: HEK293
T2 sequence (P37231 238-503 limits assumed): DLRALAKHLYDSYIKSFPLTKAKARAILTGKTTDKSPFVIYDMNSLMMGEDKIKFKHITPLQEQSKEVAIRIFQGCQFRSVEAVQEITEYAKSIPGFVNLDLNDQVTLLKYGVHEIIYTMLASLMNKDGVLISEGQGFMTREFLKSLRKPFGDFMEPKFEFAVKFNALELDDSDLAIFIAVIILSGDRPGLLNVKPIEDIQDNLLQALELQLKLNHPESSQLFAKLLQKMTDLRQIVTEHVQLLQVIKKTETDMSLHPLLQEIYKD
Method: as §1, §2

PPARδ = molecular target: T3, PPARδ (Homo sapiens, UniProt Q03181); assay: Transfection assay, GAL4-PPARδ LBD luciferase reporter in HEK293 cells
T3 construct: expressed in transfected cells; host or cells: HEK293
T3 sequence (Q03181 211-439 limits assumed): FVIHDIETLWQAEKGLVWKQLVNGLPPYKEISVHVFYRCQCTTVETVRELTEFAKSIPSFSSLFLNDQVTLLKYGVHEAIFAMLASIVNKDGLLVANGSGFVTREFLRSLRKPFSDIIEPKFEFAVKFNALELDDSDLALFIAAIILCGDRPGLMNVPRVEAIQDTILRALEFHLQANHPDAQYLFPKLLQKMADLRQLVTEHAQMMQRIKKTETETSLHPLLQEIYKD
Method: as §1, §2

Structure (SMILES)	EC50 (PPARα)	EC50 (PPARγ)	EC50 (PPARδ)
O=C(O)COc1ccc2c(c1)CCN(Cc1cnn(-c3ccc(C(F)(F)F)cc3)c1)CC2 [compound 20]	> 3 µM	> 3 µM	> 1 µM
CC(C)(Oc1ccc2c(c1)CCN(Cc1nc(-c3ccc(C(F)(F)F)cc3)ns1)CC2)C(=O)O [compound 4]	> 3 µM	> 3 µM	0.0952 µM
COc1ccc(-c2ccc(CN3CCc4ccc(OCC(=O)O)cc4CC3)o2)cc1 [compound 44]	> 3 µM	> 3 µM	> 1 µM
O=C(O)C1(Oc2ccc3c(c2)CCN(Cc2ccc(-c4ccc(C(F)(F)F)cc4)o2)CC3)CC1 [compound 38]	0.031 µM	> 1 µM	0.018 µM
CC(c1ccc(-c2ccc(C(F)(F)F)cc2)s1)N1CCc2ccc(OCC(=O)O)cc2CC1 (racemic) [compound 27]	> 3 µM	> 3 µM	< 0.003 µM and 0.0014 µM
O=C(O)COc1ccc2c(c1)CCN(Cc1ccc(-c3ccc(Cl)cc3Cl)s1)CC2 [compound 31]	> 3 µM	> 3 µM	0.237 µM
O=C(O)COc1ccc2c(c1)CCN(Cc1cccc(-c3ccc(C(F)(F)F)cc3)c1)CC2 [compound 47]	> 3 µM	> 3 µM	> 3 µM
Cc1nc(-c2ccc(C(F)(F)F)cc2)oc1CN1CCc2ccc(OCC(=O)O)cc2CC1 [compound 18]	> 3 µM	> 3 µM	0.174 µM
O=C(O)COc1ccc2c(c1)CCN(CCc1ccc(-c3ccc(C(F)(F)F)cc3)o1)CC2 [compound 45]	> 3 µM	> 3 µM	> 1 µM
Cc1cc(-c2ccc(C(F)(F)F)cc2)oc1CN1CCc2ccc(OCC(=O)O)cc2CC1 [compound 36]	> 3 µM	> 3 µM	0.0292 µM
O=C(O)COc1ccc2c(c1)CCN(Cc1cc(-c3ccc(C(F)(F)F)cc3)on1)CC2 [compound 11]	> 1 µM	> 3 µM	0.136 µM
O=C(O)COc1ccc2c(c1)CCN(Cc1cncc(-c3ccc(C(F)(F)F)cc3)n1)CC2 [compound 42]	> 3 µM	> 3 µM	> 1 µM
CC(C)(Oc1ccc2c(c1)CCN(Cc1ccc(-c3ccc(C(F)(F)F)cc3)s1)CC2)C(=O)O [compound 8]	> 1 µM	> 3 µM	0.0859 µM and 0.123 µM
CC(C)(Oc1ccc2c(c1)CCN(Cc1cc(-c3ccc(C(F)(F)F)cc3)on1)CC2)C(=O)O [compound 12]	> 1 µM	> 3 µM	0.122 µM
Cc1cc(-c2ccc(C(F)(F)F)cc2)sc1CN1CCc2ccc(OCC(=O)O)cc2CC1 [compound 13]	> 3 µM	> 3 µM	0.174 µM and 0.193 µM
O=C(O)COc1ccc2c(c1)CCN(Cc1ccnc(-c3ccc(C(F)(F)F)cc3)n1)CC2 [compound 41]	> 3 µM	> 3 µM	> 1 µM
CC(C)(Oc1ccc2c(c1)CCN(Cc1cnn(-c3ccc(C(F)(F)F)cc3)c1)CC2)C(=O)O [compound 21]	> 3 µM	> 3 µM	0.422 µM
O=C(O)COc1ccc2c(c1)CCN(Cc1ccc(-c3ccc(C(F)(F)F)cc3)o1)CC2 [compound 9]	> 3 µM	> 3 µM	0.0742 µM and 0.0709 µM
O=C(O)COc1ccc2c(c1)CCN(Cc1nc(-c3ccc(C(F)(F)F)cc3)ns1)CC2 [compound 3]	> 3 µM	> 3 µM	0.143 µM
CC1CN(Cc2ccc(-c3ccc(C(F)(F)F)cc3)s2)CCc2ccc(OCC(=O)O)cc21 (stereo not drawn) [compound 25]	> 1 µM	> 3 µM	0.011 µM and 0.0108 µM
O=C(O)COc1ccc2c(c1)CCN(Cc1ccc(-c3ccc(OC(F)(F)F)cc3)o1)CC2 [compound 34]	> 3 µM	> 3 µM	0.373 µM
CC(c1ccc(-c2ccc(C(F)(F)F)cc2)o1)N1CCc2ccc(OCC(=O)O)cc2CC1 (single isomer, unassigned) [28b]	> 3 µM	> 3 µM	0.0054 µM and 0.0098 µM
